Experimental data: US10500209B2, “Quinazolinones as bromodomain inhibitors” (Zenith Epigenetics Ltd., priority 2013, dated 2019)

Experiments:
c-myc in MV4-11 cells = test: Inhibition of c-myc expression in cancer cell lines (mRNA, real-time PCR); format: cell-based, Human; set-up: key: Active: Compounds with an IC50 value less than 30 μM were deemed to be active.; Not Active: Compounds with an IC50 value less than 30 μM were deemed to be active; conditions: 3 h
Outline: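 MV4-11 cells (2.5×10^4) treated with compound or 0.1% DMSO for 3 h at 37 °C. c-myc mRNA measured by RT real-time PCR duplexed with cyclophilin. IC50 from dose–response curve.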

hIL-17 mRNA = test: Inhibition of hIL-17 mRNA transcription in OKT3-stimulated PBMC; format: cell-based; set-up: key: Active: Compounds with an IC50 value less than 30 μM were deemed to be active.; Not Active: Compounds with an IC50 value less than 30 μM were deemed to be active; conditions: human peripheral blood mononuclear cells, OKT3 antibody, 6 h
Method: In this example, hIL-17 mRNA in human peripheral blood mononuclear cells was quantitated to measure the transcriptional inhibition of hIL-17 when treated with a compound of the invention.
Human peripheral blood mononuclear cells were plated (2.0×10^5 cells per well) in a 96-well plate in 45 μL OpTimizer T Cell expansion media containing 20 ng/ml IL-2 and penicillin/streptomycin. The cells were treated with the test compound (45 μL at 2x concentration), and then the cells were incubated at 37° C. for 1 h before addition of 10x stock OKT3 antibody at 10 ug/ml in media. Cells were incubated at 37° C. for 6 h before the cells were harvested. At time of harvest, cells were centrifuged (800 rpm, 5 min). Spent media was removed and cell lysis solution (70 μL) was added the cells in each well and incubated for 5-10 min at room temperature, to allow for complete cell lysis and detachment. mRNA was then prepared using the “mRNA Catcher PLUS plate” (Invitrogen), according to the protocol supplied. […]
(§1) The eluted mRNA isolated was then used in a one-step quantitative RT-PCR reaction, using components of the Ultra Sense Kit together with Applied Biosystems primer-probe mixes. Real-time PCR data was analyzed, normalizing the Ct values for hIL-17 to an internal control, prior to determining the fold induction of each unknown sample, relative to the control.

hIL-6 mRNA = test: Inhibition of hIL-6 mRNA transcription in LPS-stimulated U937 macrophages; format: cell-based, human; set-up: key: Active: Compounds with an IC50 value less than 30 μM were deemed to be active.; Not Active: Compounds with an IC50 value less than 30 μM were deemed to be active; conditions: U937 cells differentiated with PMA, LPS stimulation, 3 h
Method: In this example, hIL-6 mRNA in tissue culture cells was quantitated to measure the transcriptional inhibition of hIL-6 when treated with a compound of the present disclosure.
A human leukemic monocyte lymphoma cell line (U937) was plated (3.2×10^4 cells per well) in a 96-well plate in 100 μL RPMI-1640 containing 10% FBS and penicillin/streptomycin, and differentiated into macrophages for 3 days in 60 ng/mL PMA ([…]) at 37° C. in 5% CO2 prior to the addition of the compound of interest. The cells were pretreated for 1 h with the test compound prior to stimulation with 1 ug/mL lipopolysaccharide from Escherichia coli. The cells were incubated at 37° C. for 3 h before the cells were harvested. At time of harvest, the spent media was removed from the cells and the cells were rinsed in 200 μL PBS. Cell lysis solution (70 μL) was added the cells in each well and incubated for 5-10 min at room temperature, to allow for complete cell lysis and detachment. mRNA was then prepared using the “mRNA Catcher PLUS plate” (Invitrogen), according to the protocol supplied. After the last wash, as much wash buffer as possible was aspirated without allowing the wells to dry. Elution buffer (E3, 70 μL) was then added to each well. mRNA was then eluted by incubating the mRNA Catcher PLUS plate with Elution Buffer for 5 min at 68° C. and then immediately placing the plate on ice.
as §1, with “real-time PCR” for “RT-PCR”, “hIL-6” for “hIL-17”

[1] = molecular target: T1, Brd4 bromodomain 1 (BRD4(1)) (Homo sapiens, UniProt O60885); test: Inhibition of tetra-acetylated histone H4 binding to BET bromodomains (TR-FRET); set-up: key: Active: Compounds with an IC50 value less than 30 μM were deemed to be active.; Not Active: Compounds with an IC50 value less than 30 μM were deemed to be active; conditions: first bromodomain of Brd4, tetra-acetylated histone H4 peptide
T1 construct: made in house; host or cells: E. coli BL21(DE3)
Outline: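 N-terminally His-tagged bromodomain (200 nM) from E. coli was mixed with biotinylated tetra-acetylated histone H4 peptide (25-50 nM), Eu-streptavidin and XL665 anti-His, plus compound, in HEPES pH 7.4 buffer with 0.2% DMSO. After 2 h at room temperature, the 665/620 nm TR-FRET decrease gave IC50 from dose-response curves.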

human AML MV-4-11 cells = test: Inhibition of cell proliferation in cancer cell lines (CellTiter Aqueous One); format: cell-based; set-up: key: Active: Compounds with an IC50 value less than 30 μM were deemed to be active.; Not Active: Compounds with an IC50 value less than 30 μM were deemed to be active; conditions: 72 h
Outline: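 Exponentially growing MV-4-11 cells (5×10^4/well) were treated immediately with two-fold dilutions of compound from 30 μM to 0.2 μM, in triplicate, for 72 h at 37° C, 5% CO2. Viability was measured by MTS absorbance at 490 nm after 3–4 h. Proliferation relative to DMSO after blank correction gave IC50.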

hApoA-1 mRNA = test: Up-regulation of hApoA-1 mRNA transcription in Huh7 cells; format: cell-based, human; set-up: key: Active: Compounds with an EC170 value less than 30 μM were deemed to be active; conditions: 48 h treatment
Method: In this example, ApoA-I mRNA in tissue culture cells was quantitated to measure the transcriptional up-regulation of ApoA-I when treated with a compound of the present disclosure.
Huh7 cells (2.5×10^5 per well) were plated in a 96-well plate using 100 μL DMEM per well, (Gibco DMEM supplemented with penicillin/streptomycin and 10% FBS), 24 h before the addition of the compound of interest. After 48 h treatment, the spent media was removed from the Huh-7 cells and placed on ice (for immediate use) or at −80° C. (for future use) with the “LDH cytotoxicity assay Kit II” from Abcam. The cells remaining in the plate were rinsed with 100 μL PBS.
Then 85 μL of cell lysis solution was added to each well and incubated for 5-10 min at room temperature, to allow for complete cell lysis and detachment. mRNA was then prepared using the “mRNA Catcher PLUS plate” from Life Technologies, according to the protocol supplied. After the last wash, as much wash buffer as possible was aspirated without allowing the wells to dry. Elution Buffer (E3, 80 μL) was then added to each well. mRNA was then eluted by incubating the mRNA Catcher PLUS plate with Elution Buffer for 5 min at 68° C., and then 1 min at 4° C. Catcher plates with mRNA eluted were kept on ice for use or stored at −80° C.
The eluted mRNA isolated was then used in a one-step real-time PCR reaction, using components of the Ultra Sense Kit together with Life Technologies primer-probe mixes. Real-time PCR data was analyzed, using the Ct values, to determine the fold induction of each unknown sample, relative to the control (that is, relative to the control for each independent DMSO concentration).
Compounds with an EC170 value less than 30 μM were deemed to be active.

COc1ccc(-c2nc3cc(OC)cc(OC)c3c(=O)[nH]2)c(NC2CCN(C(=O)C(C)C)CC2)c1 [Example 19, 2-(2-((1-Isobutyrylpiperidin-4-yl)amino)-4-methoxyphenyl)-5,7-dimethoxyquinazolin-4(3H)-one]
c-myc activity (IC50 < 30 μM) (c-myc in MV4-11 cells): Active
IL-17 activity (IC50 < 30 μM) (hIL-17 mRNA): Active
IL-6 activity (IC50 < 30 μM) (hIL-6 mRNA): Active
FRET activity BRD4(1) [1]: Active
Cell Proliferation activity (IC50 < 30 μM) (human AML MV-4-11 cells): Active

COc1ccc(-c2nc3cc(OC)cc(OC)c3c(=O)[nH]2)c(NCCCNC(C)C)c1 [Example 20, 2-(2-((3-(Isopropylamino)propyl)amino)-4-methoxyphenyl)-5,7-dimethoxyquinazolin-4(3H)-one]
c-myc activity (IC50 < 30 μM) (c-myc in MV4-11 cells): Active
ApoA-1 activity (EC170 < 30 μM) (hApoA-1 mRNA): Active
melting point: 208 to 210 °C
IL-6 activity (IC50 < 30 μM) (hIL-6 mRNA): Active
FRET activity BRD4(1) [1]: Active
Cell Proliferation activity (IC50 < 30 μM) (human AML MV-4-11 cells): Active

COc1cnc(-c2nc3cc(OC)cc(OC)c3c(=O)[nH]2)c(NC2CCN(C(=O)C(C)C)CC2)c1 [Example 32, 2-(3-((1-Isobutyrylpiperidin-4-yl)amino)-5-methoxypyridin-2-yl)-5,7-dimethoxyquinazolin-4(3H)-one]
c-myc activity (IC50 < 30 μM) (c-myc in MV4-11 cells): Active
ApoA-1 activity (EC170 < 30 μM) (hApoA-1 mRNA): Active
melting point: 192 to 193 °C
IL-6 activity (IC50 < 30 μM) (hIL-6 mRNA): Active
FRET activity BRD4(1) [1]: Active
Cell Proliferation activity (IC50 < 30 μM) (human AML MV-4-11 cells): Active
